This is an account of results in patent US10106542B2, “Substituted 6,7-dihydropyrazolo[1,5-a]pyrazines as negative allosteric modulators of mGluR2 receptors” (Janssen Pharmaceutica NV, priority 2013, dated 2018).

Structures are written as SMILES. Structures can show the parent of a compound that is named as a salt.

For data set [1], the target named is T1, human mGlu2 receptor (Homo sapiens, UniProt Q14416).
T1 construct: expressed in transfected cells; host or cells: CHO cells (membrane preparation)
Kind of data set: [35S]GTPγS binding assay (mGluR2 negative allosteric modulation). To be noted: for IC50: membranes from CHO cells transfected with human mGlu2 receptor, glutamate 60 μM, pIC50 = −log IC50 (M), read-out: GTPγS - hmGluR2 anGT pIC50 (converted); for Emax: read-out: GTPγS - hmGluR2 anGT Emax. It is filed as biochemical. On the procedure:
1) [^35S]GTPγS binding assay
The [^35S]GTPγS binding assay is a functional membrane-based assay used to study G-protein coupled receptor (GPCR) function whereby incorporation of a non-hydrolysable form of GTP, [^35S]GTPγS (guanosine 5′-triphosphate, labelled with […] ^35S), is measured. The G-protein a subunit catalyzes the exchange of guanosine 5′-diphosphate (GDP) by guanosine triphosphate (GTP) and on activation of the GPCR by an agonist, [^35S]GTPγS, becomes incorporated and cannot be cleaved to continue the exchange cycle (Harper (1998) Current Protocols in Pharmacology 2.6.1-10, John Wiley & Sons, Inc.). […] Here we describe the use of the [^35S]GTPγS binding assay using membranes from cells transfected with the human mGlu2 receptor and adapted from Schaffhauser et al. (Molecular Pharmacology, 2003, […]) for the detection of the negative allosteric modulation (NAM) properties of the compounds of this invention.
CHO-cells were cultured to pre-confluence and stimulated with 5 mM butyrate for 24 h. Cells were then collected by scraping in PBS and cell suspension was centrifuged (10 min at 4000 RPM in benchtop centrifuge). Supernatant was discarded and pellet gently resuspended in 50 mM Tris-HCl, pH 7.4 by mixing with an Ultra Turrax homogenizer. The suspension was centrifuged at 12,400 RPM (Sorvall F14S-6x250Y) for 10 minutes and the supernatant discarded. The pellet was homogenized in 5 mM Tris-HCl, pH 7.4 using an Ultra Turrax homogenizer and centrifuged again (13,000 RPM, 20 min, 4° C.). The final pellet was resuspended in 50 mM Tris-HCl, pH 7.4 and stored at −80° C. in appropriate aliquots before use. Protein concentration was determined by the Bradford method (Bio-Rad, USA) with bovine serum albumin as standard.
Measurement of mGluR2 negative allosteric modulatory activity of test compounds was performed as follows. Test compounds and glutamate were diluted in assay buffer containing 10 mM HEPES acid, 10 mM HEPES salt, pH 7.4, 100 mM NaCl, 3 mM MgCl2 and 10 μM GDP. Human mGlu2 receptor-containing membranes were thawed on ice and diluted in assay buffer supplemented with 18 μg/ml saponin. […] After addition of [^35S]GTPγS (f.c. 0.1 nM), assay mixtures were shaken briefly and further incubated to allow [^35S]GTPγS incorporation on activation (30 minutes, 30° C.). Final assay mixtures contained 7 μg of membrane protein in 10 mM HEPES acid, 10 mM HEPES salt, pH 7.4, 100 mM NaCl, 3 mM MgCl2, 10 μM GDP and 10 μg/ml saponin. Total reaction volume was 200 μl. Reactions were terminated by rapid filtration through Unifilter-96 GF/B plates (Perkin Elmer, Massachusetts, USA) using a 96-well filtermate universal harvester. Filters were washed 6 times with ice-cold 10 mM NaH2PO4/10 mM Na2HPO4, pH 7.4. Filters were then air-dried, and 30 μl of liquid scintillation cocktail (Microscint-O) was added to each well. Membrane-bound radioactivity was counted in a Topcount.
The concentration-response curves of representative compounds of the present invention were generated using the Lexis software interface (developed at J&J). Data were calculated as % of the control glutamate response, defined as the response that is generated upon addition of an EC80-equivalent concentration of glutamate.

The mark [2] stands for this setting: relative maximal effect: maximal % inhibition relative to the control glutamate response.

T1 sequence (Q14416 19-872): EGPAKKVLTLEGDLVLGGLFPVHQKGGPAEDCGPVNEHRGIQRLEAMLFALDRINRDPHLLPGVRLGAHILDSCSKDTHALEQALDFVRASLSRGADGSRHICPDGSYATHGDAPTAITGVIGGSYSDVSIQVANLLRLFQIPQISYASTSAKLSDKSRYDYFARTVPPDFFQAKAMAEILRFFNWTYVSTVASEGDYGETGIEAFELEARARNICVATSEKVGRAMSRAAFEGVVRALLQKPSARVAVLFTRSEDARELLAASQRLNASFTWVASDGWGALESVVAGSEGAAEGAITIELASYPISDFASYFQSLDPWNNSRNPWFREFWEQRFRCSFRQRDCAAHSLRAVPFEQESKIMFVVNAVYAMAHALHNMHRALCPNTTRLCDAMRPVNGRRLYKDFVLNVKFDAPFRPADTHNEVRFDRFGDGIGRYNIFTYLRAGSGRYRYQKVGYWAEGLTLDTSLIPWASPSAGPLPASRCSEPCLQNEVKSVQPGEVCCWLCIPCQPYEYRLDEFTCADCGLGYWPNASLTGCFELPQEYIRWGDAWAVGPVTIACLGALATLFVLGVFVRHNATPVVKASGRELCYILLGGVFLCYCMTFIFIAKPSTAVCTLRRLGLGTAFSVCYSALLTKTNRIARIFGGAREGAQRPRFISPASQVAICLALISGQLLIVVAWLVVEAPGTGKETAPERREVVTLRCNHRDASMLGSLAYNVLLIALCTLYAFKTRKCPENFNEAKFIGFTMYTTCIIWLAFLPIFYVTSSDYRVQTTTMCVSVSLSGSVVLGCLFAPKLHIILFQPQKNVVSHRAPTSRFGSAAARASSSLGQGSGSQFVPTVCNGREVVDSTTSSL

Regarding `CCOc1ccc(N2C[C@H](C)n3ncc(-c4ccnc(C)c4)c3C2=O)cc1Cl` (as salt: HCl) [compound 17], the melting point (commonly the temperature, or range, at which the solid turns liquid) is more than 300 °C.

Compound `COc1ccc(N2C[C@H](C)n3ncc(-c4ccnc(C)c4)c3C2=O)cc1Cl` (as salt: HCl) [compound 20] registered a melting point of 293.6 °C.

In the case of `COCc1cc(-c2cnn3c2C(=O)N(c2ccc(C(F)(F)F)cc2)C[C@@H]3C)ccn1` (as salt: HCl) [compound 22], the melting point is 282.3 °C.

For the compound `COc1ccc(N2C[C@H](C)n3ncc(-c4ccnc(C)c4)c3C2=O)cc1` (as salt: HCl) [compound 38], the melting point is 294 °C.

For the compound `C[C@H]1CN(c2ccc(C(F)(F)F)cc2)C(=O)c2c(-c3ccnc(N4CCCCC4)c3)cnn21` (as salt: HCl) [compound 107], the melting point was found to be 294 °C.

As to `CCOc1cc(-c2cnn3c2C(=O)N(c2ccc(Cl)c(Cl)c2)C[C@@H]3C)ccn1` (as salt: HCl) [compound 133], the melting point came out at 191.5 °C.

`CC(C)Oc1cc(-c2cnn3c2C(=O)N(c2ccc(Cl)c(Cl)c2)C[C@@H]3C)ccn1` (as salt: HCl) [compound 137] yielded a melting point of 193.8 °C.

Compound `CC(C)Oc1cc(-c2cnn3c2C(=O)N(c2ccc(C(F)(F)F)cc2)C[C@@H]3C)ccn1` (as salt: HCl) [compound 138] gave a melting point of 173.9 °C.

The compound `Cc1cc(-c2cnn3c2C(=O)N(c2ccc(SC(F)(F)F)cc2)C[C@@H]3C)ccn1` (as salt: HCl) [compound 236] yielded a melting point of more than 300 °C.

For the compound `CN(C)c1cc(-c2cnn3c2C(=O)N(c2ccc(Cl)c(Cl)c2)CC3CF)ccn1` (single isomer, unassigned) [compound 90], the melting point came out at 93.7 °C. Besides, the IC50 in data set [1] is 3.09e-09 M. In addition, the Emax (as a rule, the greatest response seen or fitted, relative to the assay's reference) in data set [1] (setting [2]) was determined as 103%.

Compound `CN(C)c1cc(-c2cnn3c2C(=O)N(c2ccc(Cl)c(Cl)c2)CC3CF)ccn1` (single isomer, unassigned) [compound 91] yielded a melting point of 86 °C. Moreover, the IC50 in data set [1] is 5.62e-08 M. The “GTPγS - hmGluR2 anGT Emax” value in data set [1] (setting [2]) was 103%.

Compound `Cc1cc(-c2cnn3c2C(=O)N(c2ccc(Cl)c(C)c2)C[C@@H]3C)ccn1` [compound 7] showed a melting point of 126.7 °C. Further, the IC50 in data set [1] was 7.59e-09 M. In addition, in data set [1] (setting [2]), the Emax is 102%.

With `Cc1cc(-c2cnn3c2C(=O)N(c2ccc(F)c(C)c2)C[C@@H]3C)ccn1` [compound 21], the melting point worked out at 219.2 °C. Further, the IC50 in data set [1] was 6.17e-08 M. For the same compound, in data set [1] (setting [2]), the Emax was found to be 107%.

The compound `Cc1cc(-c2cnn3c2C(=O)N(c2cccc(C(F)(F)F)c2)C[C@@H]3C)ccn1` [compound 23] displayed a melting point of 139.2 °C. Further, the IC50 in data set [1] is 1.1e-07 M. Also, the Emax in data set [1] (setting [2]) is 104%.

As to `Cc1cc(-c2cnn3c2C(=O)N(c2ccc(OC(F)F)cc2)C[C@@H]3C)ccn1` [compound 27], the melting point came to 137.1 °C. For the same compound, the IC50 in data set [1] was 1.38e-07 M. In addition, the maximal effect (Emax) in data set [1] (setting [2]) worked out at 104%.

As for `Cc1cc(-c2cnn3c2C(=O)N(c2ccc(C(F)(F)F)cc2)C[C@@H]3C)cnc1C` [compound 29], the melting point worked out at 140.8 °C. Moreover, the IC50 in data set [1] is 2.29e-07 M. In addition, in data set [1] (setting [2]), the Emax was found to be 102%.

As for `Cc1cc(-c2cnn3c2C(=O)N(c2ccc(Cl)cc2F)C[C@@H]3C)ccn1` [compound 30], the melting point turned out to be 78.6 °C. Further, the IC50 in data set [1] is 2.57e-07 M. In addition, the Emax in data set [1] (setting [2]) was found to be 104%.

Consider `C[C@H]1CN(c2ccc(C(F)(F)F)cc2)C(=O)c2c(-c3ccc(N)nc3)cnn21` [compound 37], for which the melting point came to 254 °C. Besides, in data set [1], the IC50 was 9.77e-07 M. In addition, the maximal response (Emax) in data set [1] (setting [2]) is 99%.

Regarding `Cc1cc(-c2cnn3c2C(=O)N(c2ccc(C(F)(F)F)c(F)c2)CC3)ccn1` [compound 39], the melting point is 185.2 °C. For the same compound, the IC50 in data set [1] was 1.62e-06 M. Also, the Emax in data set [1] (setting [2]) is 100%.

For the compound `CCOc1cc(N2C[C@H](C)n3ncc(-c4cc(C)nc(C)c4)c3C2=O)ccc1C(F)(F)F` [compound 49], the melting point amounted to 183.9 °C. Besides, the IC50 in data set [1] was 8.71e-09 M. Also, the Emax in data set [1] (setting [2]) was found to be 103%.

`C[C@H]1CN(c2ccc(C(F)(F)F)c(Cl)c2)C(=O)c2c(-c3ccncc3)cnn21` [compound 50] had a melting point of 146.8 °C. Further, the IC50 in data set [1] is 9.55e-09 M. The Emax in data set [1] (setting [2]) was found to be 103%.

`COc1cc(N2C[C@H](C)n3ncc(-c4cc(C)nc(C)c4)c3C2=O)ccc1C(F)(F)F` [compound 51]: the melting point stood at 93 °C. Also, the IC50 in data set [1] is 1.1e-08 M. Also, the maximal effect (Emax) in data set [1] (setting [2]) was determined as 104%.

`Cc1cc(-c2cnn3c2C(=O)N(c2ccc(C(F)(F)F)cc2)CC3CF)ccn1` (centres unmarked) [compound 52, 7-(Fluoromethyl)-3-(2-methyl-4-pyridyl)-5-[4-(trifluoromethyl)phenyl]-6,7-dihydropyrazolo[1,5-a]pyrazin-4-one] returned a melting point of more than 300 °C. Further, the IC50 in data set [1] is 1.05e-08 M. In addition, in data set [1] (setting [2]), the maximum response (Emax) came out at 107%.

As to `C[C@H]1CN(c2ccc(C(F)(F)F)cc2)C(=O)c2c(-c3ccnc(F)c3)cnn21` [compound 247], the IC50 in data set [1] is 3.02e-08 M. Further, the Emax in data set [1] (setting [2]) is 109%.

For `C[C@H]1CN(c2ccc(C(F)(F)F)c(OCCF)c2)C(=O)c2c(-c3ccnc(N(C)C)c3)cnn21` [compound 249], the IC50 in data set [1] is 8.32e-09 M. Besides, the Emax in data set [1] (setting [2]) was 109%.

Regarding `COc1nc(N2C[C@H](C)n3ncc(-c4ccnc(N(C)C)c4)c3C2=O)ccc1C(F)(F)F` [compound 250], the IC50 in data set [1] was 3.98e-09 M. The Emax in data set [1] (setting [2]) is 120%.

In the case of `CCN(C)c1cc(-c2cnn3c2C(=O)N(c2ccc(C(F)(F)F)cc2)C[C@@H]3C)ccn1` [compound 253], the IC50 in data set [1] is 6.17e-09 M. Also, in data set [1] (setting [2]), the Emax was 111%.

On to `CCN(C)c1cc(-c2cnn3c2C(=O)N(c2ccc(C(F)(F)F)c(Cl)c2)C[C@@H]3C)ccn1` [compound 254], for which, in data set [1], the IC50 is 1.7e-09 M. Besides, the Emax in data set [1] (setting [2]) is 109%.

For `CCCNc1cc(-c2cnn3c2C(=O)N(c2ccc(C(F)(F)F)c(C)c2)C[C@@H]3C)ccn1` [compound 258], the IC50 in data set [1] is 6.03e-09 M. Also, in data set [1] (setting [2]), the Emax amounted to 108%.

For the compound `CCCNc1cc(-c2cnn3c2C(=O)N(c2ccc(C(F)(F)F)cc2)C[C@@H]3C)ccn1` [compound 259], the IC50 in data set [1] was 1.78e-08 M. Also, the Emax in data set [1] (setting [2]) is 105%.

Take `Cc1cc(N2C[C@H](C)n3ncc(-c4ccnc(N5CCC5)c4)c3C2=O)ccc1C(F)(F)F` [compound 260]: the IC50 in data set [1] is 3.55e-09 M. Moreover, the Emax in data set [1] (setting [2]) is 105%.

Regarding `CC(C)Nc1cc(-c2cnn3c2C(=O)N(c2ccc(Cl)c(Cl)c2)C[C@@H]3C)ccn1` [compound 261], in data set [1], the IC50 was 1.1e-08 M. Also, the maximal effect (Emax) in data set [1] (setting [2]) was 107%.

Consider `CC(C)Nc1cc(-c2cnn3c2C(=O)N(c2ccc(C(F)(F)F)c(Cl)c2)C[C@@H]3C)ccn1` [compound 262], for which the IC50 in data set [1] was 6.17e-09 M. Further, the Emax in data set [1] (setting [2]) was 109%.

Regarding `CCCNc1cc(-c2cnn3c2C(=O)N(c2ccc(Cl)c(Cl)c2)C[C@@H]3C)ccn1` [compound 263], in data set [1], the IC50 was 4.68e-09 M. The maximal effect (Emax) in data set [1] (setting [2]) amounted to 109%.

Take `CCCNc1cc(-c2cnn3c2C(=O)N(c2ccc(C(F)(F)F)c(Cl)c2)C[C@@H]3C)ccn1` [compound 264]: the IC50 in data set [1] was 2.69e-09 M. Moreover, in data set [1] (setting [2]), the maximal effect (Emax) stood at 108%.

With `C[C@H]1CN(c2ccc(C(F)(F)F)c(Cl)c2)C(=O)c2c(-c3ccnc(CF)c3)cnn21` [compound 265], the IC50 in data set [1] is 5.5e-09 M. In addition, the Emax in data set [1] (setting [2]) turned out to be 111%.
